Experimental data: PubChem BioAssay AID248 (DTP/NCI, 2004)
Where “and” joins values, the source holds several entries; their conditions need not be identical. Equal values may be shown once. Toxic doses and inconclusive results are not listed.

Test system: L1210 leukemia ip in BDF1 mice, survival T/C
Assay: NCI In Vivo Anticancer Drug Screen. Data for tumor model L1210 Leukemia (intraperitoneal) in B6D2F1 (BDF1) mice
Conditions: endpoint: mean survival time, higher = longer survival
In short: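 Mice bearing the transplanted tumor received compound or vehicle. Survival of the treated group was divided by that of the vehicle-treated control group to give the ratio.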

[1] = dose: 100.0 mg/kg/injection, schedule: Q04DX002 (ip), vehicle: Klucel (hydroxypropylcellulose) (HPC)
[2] = dose: 100.0 mg/kg/injection, schedule: Q01DX009 (ip), vehicle: saline with Tween-80
[3] = dose: 100.0 mg/kg/injection, schedule: Q04DX003 (ip), vehicle: saline with Tween-80
[4] = dose: 200.0 mg/kg/injection, schedule: Q01DX009 (ip), vehicle: saline with Tween-80
[5] = dose: 200.0 mg/kg/injection, schedule: Q04DX003 (ip), vehicle: saline with Tween-80
[6] = dose: 400.0 mg/kg/injection, schedule: Q01DX009 (ip), vehicle: saline with Tween-80
[7] = dose: 400.0 mg/kg/injection, schedule: Q04DX003 (ip), vehicle: saline with Tween-80
[8] = dose: 100.0 mg/kg/injection, schedule: Q01DX001 (ip), vehicle: carboxymethylcellulose (CMC)
[9] = dose: 200.0 mg/kg/injection, schedule: Q01DX001 (ip), vehicle: carboxymethylcellulose (CMC)
[10] = dose: 400.0 mg/kg/injection, schedule: Q01DX001 (ip), vehicle: carboxymethylcellulose (CMC)
[11] = dose: 50.0 mg/kg/injection, schedule: Q01DX009 (ip), vehicle: Klucel (hydroxypropylcellulose) (HPC)
[12] = dose: 100.0 mg/kg/injection, schedule: Q01DX009 (ip), vehicle: Klucel (hydroxypropylcellulose) (HPC)
[13] = dose: 100.0 mg/kg/injection, schedule: Q04DX003 (ip), vehicle: Klucel (hydroxypropylcellulose) (HPC)
[14] = dose: 200.0 mg/kg/injection, schedule: Q01DX009 (ip), vehicle: Klucel (hydroxypropylcellulose) (HPC)
[15] = dose: 200.0 mg/kg/injection, schedule: Q04DX003 (ip), vehicle: Klucel (hydroxypropylcellulose) (HPC)
[16] = dose: 400.0 mg/kg/injection, schedule: Q01DX009 (ip), vehicle: Klucel (hydroxypropylcellulose) (HPC)
[17] = dose: 400.0 mg/kg/injection, schedule: Q04DX003 (ip), vehicle: Klucel (hydroxypropylcellulose) (HPC)
[18] = dose: 100.0 mg/kg/injection, schedule: Q01DX001 (ip), vehicle: saline
[19] = dose: 200.0 mg/kg/injection, schedule: Q01DX001 (ip), vehicle: saline
[20] = dose: 400.0 mg/kg/injection, schedule: Q01DX001 (ip), vehicle: saline
[21] = dose: 100.0 mg/kg/injection, schedule: Q04DX003 (ip), vehicle: saline
[22] = dose: 200.0 mg/kg/injection, schedule: Q04DX003 (ip), vehicle: saline
[23] = dose: 400.0 mg/kg/injection, schedule: Q04DX003 (ip), vehicle: saline

CN(C)N=Nc1ccc(S(=O)(=O)N(CCCl)CCCl)cc1
T/C (dose: 12.5 mg/kg/injection, schedule: Q04DX002 (ip), vehicle: Klucel (hydroxypropylcellulose) (HPC)): 100 % of control
T/C (dose: 25.0 mg/kg/injection, schedule: Q04DX002 (ip), vehicle: Klucel (hydroxypropylcellulose) (HPC)): 96 % of control
T/C (dose: 50.0 mg/kg/injection, schedule: Q04DX002 (ip), vehicle: Klucel (hydroxypropylcellulose) (HPC)): 103 % of control
T/C [1]: 120 % of control
T/C (dose: 200.0 mg/kg/injection, schedule: Q04DX002 (ip), vehicle: Klucel (hydroxypropylcellulose) (HPC)): 103 % of control
T/C (dose: 400.0 mg/kg/injection, schedule: Q04DX002 (ip), vehicle: Klucel (hydroxypropylcellulose) (HPC)): 95 % of control

O=[N+]([O-])/C=C/c1ccccc1F
T/C (dose: 18.75 mg/kg/injection, schedule: Q04DX003 (ip), vehicle: Klucel (hydroxypropylcellulose) (HPC)): 95 % of control
T/C (dose: 37.5 mg/kg/injection, schedule: Q04DX003 (ip), vehicle: Klucel (hydroxypropylcellulose) (HPC)): 98 % of control
T/C (dose: 75.0 mg/kg/injection, schedule: Q04DX003 (ip), vehicle: Klucel (hydroxypropylcellulose) (HPC)): 91 % of control

COc1ccc(C(=O)C(C)Br)c(OCc2ccccc2)c1OC (centres undefined)
T/C [2]: 107 % of control
T/C [3]: 106 % of control
T/C [4]: 97 % of control
T/C [5]: 90 % of control
T/C [6]: 98 % of control
T/C [7]: 105 % of control

O=C1CCCC2CCCC12 (centres undefined)
T/C [8]: 93 % of control
T/C [9]: 95 % of control
T/C [10]: 93 % of control

NC(=S)N/N=C(\c1ccccc1)c1cccc2ccccc12
T/C (dose: 25.0 mg/kg/injection, schedule: Q01DX009 (ip), vehicle: Klucel (hydroxypropylcellulose) (HPC)): 91 % of control
T/C [11]: 91 % of control
T/C [1]: 93 % of control

O=C(O)CCC(NC(=O)c1ccc(Cc2ccc(NC(=O)OCc3ccccc3)cc2)cc1)C(=O)O (centres undefined)
T/C [12]: 96 % of control
T/C [13]: 97 % of control
T/C [14]: 95 % of control
T/C [15]: 94 % of control
T/C [16]: 93 % of control
T/C [17]: 103 % of control

C=CCOCC(O)CN(CC(C)C)CC(C)C (centres undefined)
T/C [12]: 112 % of control
T/C [13]: 95 % of control
T/C [14]: 101 % of control
T/C [15]: 88 % of control
T/C [17]: 105 % of control

CCCCCCCCCCCCCCCCCCNC(=O)Nc1cccc(NC(C)=O)c1
T/C [12]: 91 % of control
T/C [14]: 88 % of control
T/C [16]: 98 % of control

Nc1ccc(CCc2ccc(S(=O)(=O)F)cc2)cc1
T/C [18]: 108 % of control
T/C [19]: 103 % of control
T/C [20]: 102 % of control

O=C(Nc1ccc(C(=O)O)cc1)Oc1ccc(N(CCCl)CCCl)cc1
T/C (dose: 6.0 mg/kg/injection, schedule: Q01DX009 (ip), vehicle: other): 114 % of control
T/C (dose: 6.0 mg/kg/injection, schedule: Q01DX009 (ip), vehicle: saline): 106 % of control
T/C (dose: 12.0 mg/kg/injection, schedule: Q01DX009 (ip), vehicle: other): 122 % of control
T/C (dose: 12.0 mg/kg/injection, schedule: Q01DX009 (ip), vehicle: saline): 117 % of control
T/C (dose: 37.5 mg/kg/injection, schedule: Q01DX001 (ip), vehicle: other): 114 % of control
T/C (dose: 48.0 mg/kg/injection, schedule: Q01DX009 (ip), vehicle: other): 160 % of control
T/C (dose: 75.0 mg/kg/injection, schedule: Q01DX001 (ip), vehicle: carboxymethylcellulose (CMC)): 124 % of control
T/C (dose: 75.0 mg/kg/injection, schedule: Q01DX001 (ip), vehicle: other): 121 % of control
T/C (dose: 96.0 mg/kg/injection, schedule: Q01DX009 (ip), vehicle: other): 101 % of control
T/C (dose: 96.0 mg/kg/injection, schedule: Q01DX009 (ip), vehicle: saline): 91 % of control
T/C (dose: 300.0 mg/kg/injection, schedule: Q01DX001 (ip), vehicle: other): 117 % of control

c1ccc2c(c1)ccc1ccc3cccc[n+]3c12
T/C (dose: 1.25 mg/kg/injection, schedule: Q01DX001 (ip), vehicle: saline): 93 % of control
T/C (dose: 2.5 mg/kg/injection, schedule: Q01DX001 (ip), vehicle: saline): 102 % of control
T/C (dose: 5.0 mg/kg/injection, schedule: Q01DX001 (ip), vehicle: saline): 108 % of control
T/C (dose: 10.0 mg/kg/injection, schedule: Q01DX001 (ip), vehicle: saline): 102 % of control

CCOc1cc[n+]([O-])cc1C
T/C (dose: 50.0 mg/kg/injection, schedule: Q01DX001 (ip), vehicle: carboxymethylcellulose (CMC)): 102 % of control
T/C [8]: 98 % of control

CN(C)CCCN=NNc1nc[nH]c1C(N)=O
T/C (dose: 100.0 mg/kg/injection, schedule: Q01DX001 (ip), vehicle: Klucel (hydroxypropylcellulose) (HPC)): 95 % of control
T/C [13]: 108 % of control
T/C (dose: 200.0 mg/kg/injection, schedule: Q01DX001 (ip), vehicle: Klucel (hydroxypropylcellulose) (HPC)): 91 % of control
T/C [15]: 92 % of control
T/C (dose: 400.0 mg/kg/injection, schedule: Q01DX001 (ip), vehicle: Klucel (hydroxypropylcellulose) (HPC)): 95 % of control

Cc1ccc(Cl)cc1NC(=O)c1ccc(Cl)cc1
T/C [12]: 99 % of control
T/C [21]: 114 % of control
T/C [14]: 89 % of control
T/C [22]: 97 % of control
T/C [16]: 93 % of control
T/C [23]: 119 % of control

O=c1[nH]nc(-c2ccc3c(c2)Cc2ccccc2-3)c2ccccc12
T/C [8]: 100 % of control
T/C [9]: 94 % of control
T/C [10]: 97 % of control

O=C(NC(=S)Nc1ccc(Cl)c(Cl)c1)c1ccc(Cl)cc1Cl
T/C (dose: 100.0 mg/kg/injection, schedule: Q01DX001 (ip), vehicle: saline with Tween-80): 93 % of control
T/C [2]: 97 % of control and 98 % of control
T/C (dose: 100.0 mg/kg/injection, schedule: Q04DX002 (ip), vehicle: saline with Tween-80): 98 % of control and 90 % of control
T/C [3]: 93 % of control
T/C (dose: 200.0 mg/kg/injection, schedule: Q01DX001 (ip), vehicle: saline with Tween-80): 89 % of control
T/C [4]: 91 % of control and 92 % of control
T/C (dose: 200.0 mg/kg/injection, schedule: Q04DX002 (ip), vehicle: saline with Tween-80): 101 % of control
T/C [5]: 93 % of control
T/C [6]: 87 % of control and 91 % of control
T/C (dose: 400.0 mg/kg/injection, schedule: Q04DX002 (ip), vehicle: saline with Tween-80): 95 % of control and 90 % of control
T/C [7]: 93 % of control

CN(C)c1ccc(C=Nc2ccc([N+](=O)[O-])cc2O)cc1
T/C [18]: 97 % of control
T/C [19]: 95 % of control
T/C [20]: 92 % of control

CC(=NCC(=O)O)c1ccccc1
T/C (dose: 25.0 mg/kg/injection, schedule: Q01DX009 (ip), vehicle: saline): 104 % of control
T/C (dose: 50.0 mg/kg/injection, schedule: Q01DX009 (ip), vehicle: saline): 94 % of control
T/C (dose: 100.0 mg/kg/injection, schedule: Q01DX009 (ip), vehicle: saline): 90 % of control
T/C [21]: 100 % of control

Cc1ccc(NC(=O)OCCOc2ccc(Cl)cc2)c([N+](=O)[O-])c1
T/C [11]: 97 % of control
T/C [12]: 87 % of control
T/C [13]: 99 % of control
T/C [14]: 90 % of control
T/C [15]: 104 % of control
T/C [17]: 90 % of control

COc1cc(C=C2c3ccccc3-c3ccccc32)ccc1O
T/C [18]: 91 % of control
T/C [21]: 99 % of control
T/C [19]: 91 % of control
T/C [22]: 91 % of control
T/C [20]: 91 % of control
T/C [23]: 91 % of control
